Laboratory results published in US8513276B2, “Imidazo[1,2-a]pyridine compounds for use in treating cancer” (Astex Therapeutics Limited, priority 2006, dated 2013).
Where a name gives a salt, the structure may show the parent alone. Read-outs that look alike come from different tables or passages of the source.

Legend:
FGFR3 = molecular target: T1, FGFR3 (Homo sapiens, UniProt P22607); assay: FGFR3 in vitro kinase inhibitory activity assay (TRF); type: biochemical
T1 construct: Enzymes (from Upstate) were prepared at 2× final concentration in 1× kinase assay buffer; purchased Upstate
Method: Enzymes (from Upstate) were prepared at 2× final concentration in 1× kinase assay buffer (as described below). Enzymes were then incubated with test compounds, biotinylated Flt3 substrate (biotin—DNEYFYV) (Cell Signalling Technology Inc.) and ATP. The reaction was allowed to proceed for 3 hours (FGFR3) or 2.5 hrs (PDGFR-beta) at room temperature on a plate shaker at 900 rpm before being stopped with 20 μl of 35 mM EDTA, pH 8 (FGFR3) or 55 mM EDTA, pH 8 (PDGFR-beta). Twenty μl of 5× detection mix (50 mM HEPES pH 7.5, 0.1% BSA, 2 nM Eu-anti-pY (PY20) (PerkinElmer) 15 nM SA-XL665 (Cisbio) for FGFR3 and 50 mM HEPES, pH 7.5, 0.5 M KF, 0.1% BSA, 11.34 nM Eu-anti-pY (PT66) (PerkinEimer), 94 nM SA-XL665 (Cisbio) for PDGFR-beta) was then added to each well and the plate sealed and incubated at room temperature for one hour on a plate shaker at 900 rpm. The plate was then read on a Packard Fusion plate reader in TRF mode.
Kinase Assay buffers were:
A: 50 mM HEPES pH 7.5, 6 mM MnCl2, 1 mM DTT, 0.1% TritonX-100

LP-1 cell line = assay: Cell-based pERK ELISA in LP-1 multiple myeloma cells; conditions: Homo sapiens
Method: LP-1 or JIM-1 multiple myeloma cells were seeded in 96 well plates at 1×10^6 cells/ml in 200 μl per well in serum free media. HUVEC cells were seeded at 2.5×10^5 cells/ml and allowed to recover for 24 h prior to transfer to serum free media. Cells were incubated for 16 h at 37° C. prior to the addition of a test compound for 30 minutes. Test compounds were administered at a 0.1% final DMSO concentration. Following this 30 minute incubation a FGF-1/Heparin (FGF-1 at 100 ng/ml final and Heparin at 100 ug/ml) mixture or VEGF^165 ([…]) was added to each of the wells for a further 5 minutes. The media was removed and 50 ul ERK ELISA lysis buffer (R and D Systems DuoSet ELISA for pERK and Total ERK #DYC-1940E, DYC-1018E) added. ELISA plates and standards were prepared according to the standard DuoSet protocols and the relative amounts of pERK to total ERK in each sample calculated according to the standard curve.
In particular, compounds of the invention were tested against the LP-1 cell line (DSMZ no.: ACC 41) derived from human multiple myeloma.

[1] = given as a bound, read-out: IC50 in the FGFR3 assay
[2] = in vitro kinase assay, 8 μM ATP, read-out: FGFR3 IC50
[3] = LP-1 cell line, given as a bound, read-out: IC50 in LP-1 pERK ELISA
[4] = LP-1 cells, FGF-1/heparin stimulation, pERK relative to total ERK, read-out: LP-1 pERK ELISA

T1 sequence (P22607 23-806): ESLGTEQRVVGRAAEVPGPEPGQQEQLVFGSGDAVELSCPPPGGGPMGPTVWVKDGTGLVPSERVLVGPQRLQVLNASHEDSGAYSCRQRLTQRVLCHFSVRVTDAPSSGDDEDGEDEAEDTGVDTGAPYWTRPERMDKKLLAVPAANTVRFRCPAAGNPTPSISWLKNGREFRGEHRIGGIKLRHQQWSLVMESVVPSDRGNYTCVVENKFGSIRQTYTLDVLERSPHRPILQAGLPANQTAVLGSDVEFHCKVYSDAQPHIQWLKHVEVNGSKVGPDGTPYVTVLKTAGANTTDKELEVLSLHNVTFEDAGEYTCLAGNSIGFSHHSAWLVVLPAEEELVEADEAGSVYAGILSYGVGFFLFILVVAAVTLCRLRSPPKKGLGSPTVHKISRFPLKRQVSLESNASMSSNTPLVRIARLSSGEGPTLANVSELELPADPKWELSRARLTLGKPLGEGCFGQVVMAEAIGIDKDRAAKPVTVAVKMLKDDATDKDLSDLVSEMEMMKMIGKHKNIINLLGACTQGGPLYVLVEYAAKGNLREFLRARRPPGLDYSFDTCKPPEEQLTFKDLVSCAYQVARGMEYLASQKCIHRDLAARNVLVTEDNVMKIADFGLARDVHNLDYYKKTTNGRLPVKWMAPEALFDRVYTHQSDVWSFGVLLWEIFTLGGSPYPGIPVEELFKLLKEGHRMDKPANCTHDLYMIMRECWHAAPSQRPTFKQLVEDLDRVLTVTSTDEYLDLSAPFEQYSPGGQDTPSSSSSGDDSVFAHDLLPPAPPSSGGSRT

IC50 (FGFR3; [1]) [nM]	IC50 (FGFR3; [2]) [nM]	IC50 (LP-1 cell line; [3]) [nM]	IC50 (LP-1 cell line; [4]) [nM]	Structure (SMILES)
< 1000	16	< 1000	8.5	Cn1cc(-c2ccn3c(-c4cccc(Nc5nncs5)c4)cnc3c2)cn1 [Example 14, {3-[7-(1-Methyl-1H-pyrazol-4-yl)-imidazo[1,2-a]pyridin-3-yl]-phenyl}-[1,3,4]thiadiazol-2-yl-amine]
< 1000	33.9	< 1000	140	Cn1nnc(-c2ccn3c(-c4cccc(Nc5nncs5)c4)cnc3c2)n1 [Example 43, {3-[7-(2-Methyl-2H-tetrazol-5-yl)-imidazo[1,2-a]pyridin-3-yl]phenyl}-[1,3,4]thiadiazol-2-yl-amine]
< 1000	–	< 1000	–	c1cc(Nc2nncs2)cc(-c2cnc3cc(-c4ccc5c(c4)OCO5)ccn23)c1 [Example 20, [3-(7-Benzo[1,3]dioxol-5-yl-imidazo[1,2-a]pyridin-3-yl)-phenyl]-[1,3,4]thiadiazol-2-yl-amine Formate]
< 1000	–	< 1000	–	Cn1cc(-c2cnc3c(-c4cccc(Nc5nncs5)c4)cnn3c2)cn1 [Example 16, {3-[6-(1-Methyl-1H-pyrazol-4-yl)-pyrazolo[1,5-a]pyrimidin-3-yl]-phenyl}-[1,3,4]thiadiazol-2-yl-amine]
< 1000	–	< 1000	–	Cc1nnc(Nc2cccc(-c3cnc4cc(-c5cccc(CN6CCOCC6)c5)ccn34)c2)s1 [Example 3]
< 1000	–	< 1000	–	c1cc(CN2CCOCC2)cc(-c2ccn3c(-c4cccc(Nc5nncs5)c4)cnc3c2)c1 [Example 2]
< 1000	–	< 1000	–	O=C(O)Cc1cccc(-c2ccn3c(-c4cccc(NCc5ccccc5)c4)cnc3c2)c1 [Example 13, {3-[3-(3-Benzylamino-phenyl)-imidazo[1,2-a]pyridin-7-yl]-phenyl}-acetic acid]
< 1000	–	< 1000	–	Fc1ccc(-c2ccc3c(-c4cccc(Nc5nncs5)c4)cnn3c2)cc1 [Example 12, {3-[6-(4-Fluoro-phenyl)-pyrazolo[1,5-a]pyridin-3-yl]-phenyl}-[1,3,4]thiadiazol-2-yl-amine]
< 1000	4.82	< 1000	39	Fc1ccc(-c2cnc3c(-c4cccc(Nc5nncs5)c4)cnn3c2)cc1 [Example 10, {3-[6-(4-Fluoro-phenyl)-pyrazolo[1,5-a]pyrimidin-3-yl]-phenyl}-[1,3,4]thiadiazol-2-yl-amine]
< 1000	–	< 1000	–	c1cc(Nc2nncs2)cc(-c2cnc3cc(N4CCCCC4)ccn23)c1 [Example 24, [3-(7-Piperidin-1-yl-imidazo[1,2-a]pyridin-3-yl)-phenyl]-[1,3,4]thiadiazol-2-yl-amine]
< 1000	–	< 1000	–	c1cc(Nc2nncs2)cc(-c2cnn3cc(-c4cnccn4)cnc23)c1 [Example 18, [3-(6-Pyrazin-2-yl-pyrazolo[1,5-a]pyrimidin-3-yl)-phenyl]-[1,3,4]thiadiazol-2-yl-amine]
< 1000	–	< 1000	–	c1cc(Nc2nncs2)cc(-c2cnn3cc(-c4ccncc4)cnc23)c1 [Example 17, [3-(6-Pyridin-4-yl-pyrazolo[1,5-a]pyrimidin-3-yl)-phenyl]-[1,3,4]thiadiazol-2-yl-amine]
< 1000	–	< 1000	–	CNC(=O)Cc1cccc(-c2ccn3c(-c4cccc(Nc5nncs5)c4)cnc3c2)c1 [Example 26, N-Methyl-2-(3-{3-[3-([1,3,4]thiadiazol-2-ylamino)-phenyl]-imidazo[1,2-a]pyridin-7-yl}-phenyl)-acetamide Hydrochloride]
< 1000	–	< 1000	–	CN1CCN(Cc2ccc(-c3ccn4c(-c5cccc(Nc6cnn[nH]6)c5)cnc4c3)cc2)CC1 [Example 4, (3-{7-[4-(4-Methyl-piperazin-1-ylmethyl)-phenyl]-imidazo[1,2-a]pyridin-3-yl}-phenyl)-(3H-[1,2,3]triazol-4-yl)-amine formate salt]
< 1000	–	< 1000	–	CNC(=O)c1cccc(-c2ccn3c(-c4cccc(Nc5nncs5)c4)cnc3c2)c1 [Example 30, N-Methyl-3-{3-[3-([1,3,4]thiadiazol-2-ylamino)-phenyl]-imidazo[1,2-a]pyridin-7-yl}-benzamide Hydrochloride]
< 1000	–	< 1000	–	Clc1ccn2c(-c3cccc(Nc4nncs4)c3)cnc2c1 [the starting material of Procedure A4c, [3-(7-Chloro-imidazo[1,2-a]pyridin-3-yl)-phenyl]-[1,3,4]thiadiazol-2-yl-amine]
< 1000	–	< 1000	–	CN1CCN(Cc2cccc(-c3ccn4c(-c5cccc(Nc6nncs6)c5)cnc4c3)c2)CC1 [Example 9, (3-{7-[3-(4-Methyl-piperazin-1-ylmethyl)-phenyl]-imidzao[1,2-a]pyridin-3-yl}-phenyl)-[1,3,4]thiadiazol-2-yl-amine formate salt]
